Measurements reported in ChEMBL document CHEMBL1201862, “PubChem BioAssay data set” (2004).
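Method: 48-hour compound exposure of cells in 96-well plates, five concentrations, linear interpolation of endpoints. GI50 is the concentration that inhibits growth by half.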 The source made the active and inactive calls. Rule as the data show it: active = GI50 up to about 1.1 µM and inactive = higher.

What was measured:
Assay in all cases: DTP human tumour cell line panel, 48 h
ACHN = test system: ACHN
NCI-H522 = test system: NCI-H522
MDA-MB-231 = test system: MDA-MB-231
TK-10 = test system: TK-10
OVCAR-3 = test system: OVCAR-3
DLD-1 = test system: DLD-1
LOX IMVI = test system: LOX IMVI
CAKI-1 = test system: CAKI-1
MDA-N = test system: MDA-N
M14 = test system: M14
CCRF-CEM = test system: CCRF-CEM
SF-539 = test system: SF-539
UO-31 = test system: UO-31
NCI-H226 = test system: NCI-H226
SK-OV-3 = test system: SK-OV-3
786-0 = test system: 786-0
HL-60 = test system: HL-60
K562 = test system: K562
NCI-H23 = test system: NCI-H23
A549 = test system: A549
SK-MEL-5 = test system: SK-MEL-5
HOP-92 = test system: HOP-92
RPMI-8226 = test system: RPMI-8226
Malme-3M = test system: Malme-3M
HCT-15 = test system: HCT-15
OVCAR-8 = test system: OVCAR-8
HOP-18 = test system: HOP-18
OVCAR-5 = test system: OVCAR-5
SN12C = test system: SN12C
SR = test system: SR
U-251 = test system: U-251
EKVX = test system: EKVX
UACC-62 = test system: UACC-62
IGROV-1 = test system: IGROV-1
NCI-H460 = test system: NCI-H460
SF-295 = test system: SF-295
MOLT-4 = test system: MOLT-4
SNB-75 = test system: SNB-75
Hs-578T = test system: Hs-578T
PC-3 = test system: PC-3
KM12 = test system: KM12
UACC-257 = test system: UACC-257
SW-620 = test system: SW-620
T47D = test system: T47D
BT-549 = test system: BT-549
OVCAR-4 = test system: OVCAR-4
COLO 205 = test system: COLO 205
DMS-273 = test system: DMS-273
SK-MEL-28 = test system: SK-MEL-28
SNB-19 = test system: SNB-19
HT-29 = test system: HT-29
SF-268 = test system: SF-268
RXF 393 = test system: RXF 393
HCT-116 = test system: HCT-116
HOP-62 = test system: HOP-62
MDA-MB-435 = test system: MDA-MB-435
SK-MEL-2 = test system: SK-MEL-2
DU-145 = test system: DU-145
DMS-114 = test system: DMS-114
HCC 2998 = test system: HCC 2998
KM-20L2 = test system: KM-20L2
LXFL 529 = test system: LXFL 529
M19-MEL = test system: M19-MEL
XF498 = test system: XF498

Measured: GI50

CC[C@@]1(O)C[C@H](OC2CC(N(C)C)C(OC3CC(O)C(OC4CCC(=O)C(C)O4)C(C)O3)C(C)O2)c2c(cc3c(c2O)C(=O)c2c(O)ccc(O)c2C3=O)[C@H]1C(=O)OC (stereo not given in full)
active: ACHN 0.0536 nM | NCI-H522 0.0528 nM | MDA-MB-231 2.88 nM | TK-10 1.52 nM | OVCAR-3 0.233 nM | DLD-1 < 0.01 nM | LOX IMVI 0.02 nM | CAKI-1 < 0.01 nM | MDA-N 0.427 nM | M14 0.438 nM | CCRF-CEM 0.0838 nM | SF-539 0.114 nM | UO-31 0.0422 nM | NCI-H226 0.0583 nM | SK-OV-3 0.404 nM | 786-0 < 10 nM | HL-60 0.0656 nM | K562 0.0883 nM | NCI-H23 1.57 nM | A549 0.067 nM | SK-MEL-5 0.535 nM | HOP-92 0.8 nM | RPMI-8226 0.0783 nM | Malme-3M 0.0906 nM | OVCAR-8 2.33 nM | HOP-18 12.8 nM | OVCAR-5 0.365 nM | SN12C 0.0418 nM | SR 0.101 nM | U-251 0.0635 nM | EKVX 4.92 nM | UACC-62 3.41 nM | IGROV-1 0.0535 nM | NCI-H460 0.0233 nM | SF-295 0.0681 nM | MOLT-4 0.0355 nM | SNB-75 0.105 nM | Hs-578T 3.66 nM | PC-3 0.395 nM | KM12 0.0877 nM | UACC-257 2.02 nM | SW-620 0.052 nM | T47D 0.773 nM | BT-549 1.13 nM | OVCAR-4 0.0106 nM | COLO 205 0.0755 nM | DMS-273 < 0.01 nM | SK-MEL-28 0.343 nM | SNB-19 0.0551 nM | HT-29 0.0483 nM | SF-268 0.132 nM | RXF 393 0.344 nM | HCT-116 0.0232 nM | HOP-62 0.0875 nM | MDA-MB-435 0.929 nM | SK-MEL-2 0.0787 nM | DU-145 1.73 nM
0.0975 nM: HCT-15

CC(=O)O/N=C/c1cc2c(cc1Br)OCO2
inactive: ACHN > 349000 nM | NCI-H522 185000 nM | TK-10 > 349000 nM | OVCAR-3 137000 nM | DMS-114 > 349000 nM | DLD-1 > 349000 nM | LOX IMVI > 349000 nM | CAKI-1 > 349000 nM | CCRF-CEM > 349000 nM | SK-OV-3 > 349000 nM | 786-0 > 349000 nM | HL-60 > 349000 nM | K562 > 349000 nM | NCI-H23 > 349000 nM | A549 > 349000 nM | SK-MEL-5 > 349000 nM | HOP-92 > 349000 nM | HCC 2998 > 349000 nM | KM-20L2 > 349000 nM | RPMI-8226 > 349000 nM | LXFL 529 > 349000 nM | Malme-3M > 349000 nM | OVCAR-8 > 349000 nM | OVCAR-5 > 349000 nM | SN12C > 349000 nM | SR > 349000 nM | U-251 > 34900 nM | EKVX > 349000 nM | UACC-62 > 349000 nM | IGROV-1 > 349000 nM | NCI-H460 > 349000 nM | M19-MEL > 349000 nM | SF-295 291000 nM | MOLT-4 > 349000 nM | KM12 > 349000 nM | UACC-257 > 349000 nM | SW-620 > 349000 nM | COLO 205 > 349000 nM | DMS-273 > 349000 nM | SK-MEL-28 > 349000 nM | XF498 > 349000 nM | HT-29 > 349000 nM | SF-268 > 349000 nM | RXF 393 > 349000 nM | HOP-62 > 349000 nM | SK-MEL-2 > 349000 nM
> 349000 nM: HCT-15
